From article PMC6934184, “Selective DNA-PKcs inhibition extends the therapeutic index of localized radiotherapy and chemotherapy” (The Journal of Clinical Investigation, 2019)

Target: T1, CDK11 (Inactive) (Homo sapiens, UniProt Q9BWU1)
T1 construct: purchased Thermo Fisher Scientific (Life Technologies) SelectScreen
Test: SelectScreen LanthaScreen
Assay type: binding
Settings: 1 µM
Procedure, shortened: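 SelectScreen broad panel; activity (Z'LYTE, Adapta) plus binding formats. ATP: Km app for CSF1R Z'LYTE; 10 for CAMK1 Adapta. Readout = % per kinase.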

T1 sequence (Q9BWU1 whole entry): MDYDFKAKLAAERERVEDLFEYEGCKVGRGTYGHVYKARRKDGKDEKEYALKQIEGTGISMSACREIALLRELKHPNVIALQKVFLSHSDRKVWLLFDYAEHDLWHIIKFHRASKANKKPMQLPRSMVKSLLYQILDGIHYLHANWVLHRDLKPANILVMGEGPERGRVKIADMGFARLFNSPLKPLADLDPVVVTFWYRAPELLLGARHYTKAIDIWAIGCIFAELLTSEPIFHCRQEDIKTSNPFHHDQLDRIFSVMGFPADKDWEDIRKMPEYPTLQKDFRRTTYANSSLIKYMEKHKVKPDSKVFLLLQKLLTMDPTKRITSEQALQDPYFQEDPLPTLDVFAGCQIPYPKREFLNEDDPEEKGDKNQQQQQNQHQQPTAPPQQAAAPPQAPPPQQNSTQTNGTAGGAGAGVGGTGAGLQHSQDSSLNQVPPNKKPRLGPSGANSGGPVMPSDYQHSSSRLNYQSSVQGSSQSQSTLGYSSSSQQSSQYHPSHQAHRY

CN(C(=O)CN1CCOCC1)c1ccc2sc3c(-c4cccc5c(=O)cc(N6CC7CCC(C6)O7)oc45)cccc3c2c1 [NU5455]
% displacement: 1.7%
